According to patent US6903086B2, “Alkoxycarbonylamino benzoic acid or alkoxycarbonylamino tetrazolyl phenyl derivatives as IP antagonists” (SYNTEX (U.S.A.) LLC, priority 2001, dated 2005):

SMILES | melting point [°C]
Nc1cccc(NC(=O)OCc2cc3cc(-c4ccc(F)cc4)ccc3o2)c1C(=O)O [compound 701, 2-amino-6-[5-(4-fluorophenyl)benzofuran-2-ylmethoxycarbonylamino]benzoic acid] | 176.4 to 178.5
O=C(Nc1ccc(Br)cc1-c1nnn[nH]1)OCc1cc2cc(-c3ccccc3)ccc2o1 [compound 507, [4-bromo-2-(1H-tetrazol-5-yl)-phenyl]-carbamic acid 5-phenyl-benzofuran-2-ylmethyl ester] | 166 to 190
O=C(Nc1ccccc1C(=O)O)OCc1cc2cc(-c3ccccc3)ccc2o1 [compound 17, 2-(5-phenyl-benzofuran-2-ylmethoxycarbonylamino)-benzoic acid] | 203.6 to 203.8
O=C(Nc1ccc(-c2ccccc2)cc1C(=O)O)OCc1cc2cc(-c3ccc(F)cc3)ccc2o1 [compound 15, 4-[5-(4-fluoro-phenyl)-benzofuran-2-ylmethoxycarbonylamino]-biphenyl-3-carboxylic acid] | 231.3 to 231.6
O=C(Nc1ccc2ccccc2c1C(=O)O)OCc1cc2cc(-c3ccc(F)cc3)ccc2o1 [compound 202, 2-[5-(4-fluoro-phenyl)-benzofuran-2-ylmethoxycarbonylamino]-naphthalene-1-carboxylic acid] | 204.5 to 205
O=C(Nc1ccc(-c2ccc(F)cc2)cc1C(=O)O)OCc1cc2cc(-c3ccccc3)ccc2o1 [compound 12, 4′-fluoro-4-(5-phenyl-benzofuran-2-ylmethoxycarbonylamino)-biphenyl-3-carboxylic acid] | 229.4 to 229.6
O=C(Nc1ccc(-c2ccc(F)cc2)cc1C(=O)O)OCc1cc2cc(-c3cccnc3)ccc2o1 [compound 34, 4′-fluoro-4-(5-pyridin-3-yl-benzofuran-2-ylmethoxycarbonylamino)-biphenyl-3-carboxylic acid] | 237.1 to 237.5
O=C(Nc1cccc(Cl)c1C(=O)O)OCc1cc2cc(-c3cncnc3)ccc2o1 [compound 37, 2-chloro-6-(5-pyrimidin-5-yl-benzofuran-2-ylmethoxycarbonylamino)-benzoic acid] | 192.8 to 194.3
O=C(Nc1ccc2ccccc2c1C(=O)O)OCc1cc2cc(-c3ccccc3)ccc2o1 [compound 201, 2-(5-phenyl-benzofuran-2-ylmethoxycarbonylamino)-naphthalene-1-carboxylic acid] | 174.5 to 177.2
O=C(Nc1ccc(-c2ccc(F)cc2)cc1C(=O)O)OCc1cc2cc(-c3ccsc3)ccc2o1 [compound 32, 4′-fluoro-4-(5-thiophen-3-yl-benzofuran-2-ylmethoxycarbonylamino)-biphenyl-3-carboxylic acid] | 213.2 to 215.1
O=C(Nc1cc2ccccc2cc1C(=O)O)OCc1cc2cc(-c3ccccc3)ccc2o1 [compound 18, 3-(5-phenyl-benzofuran-2-ylmethoxycarbonylamino)-naphthalene-2-carboxylic acid] | 225.6 to 225.8
O=C(Nc1ccc(Br)cc1C(=O)O)OCc1cc2cc(-c3ccc(F)cc3)ccc2o1 [compound 26, 5-bromo-2-[5-(4-fluoro-phenyl)-benzofuran-2-ylmethoxycarbonylamino]-benzoic acid] | 220.3 to 220.6
O=C(Nc1ccc(-c2cccnc2)cc1C(=O)O)OCc1cc2cc(-c3ccc(F)cc3)ccc2o1 [compound 16, 2-[5-(4-fluoro-phenyl)-benzofuran-2-ylmethoxycarbonylamino]-5-pyridin-3-yl-benzoic acid] | 225.7 to 229.3
